Measured values as given in PMC8955307, “Nucleobase-Derived Nitrones: Synthesis and Antioxidant and Neuroprotective Activities in an In Vitro Model of Ischemia–Reperfusion” (International Journal of Molecular Sciences, 2022).
Where two headings read alike, the source gives them in different places.

What was measured:
[1] = Hydroxyl radical scavenging (competition with DMSO); conditions: tested at 100 µM
Method: The competition of the tested nitrones (100 µM) with DMSO (33 mM) in the phosphate buffer (50 mM), pH 7.4, was used. The hydroxyl radicals were generated by the Fe^3+/ascorbic acid system (EDTA 0.1 mM, Fe^3+ 167 µM, ascorbic acid 10 mM), and the samples were incubated at 37 °C/30 min. A 17% w/v solution of CCl3CO2H was used to stop the radical propagation. The percentage scavenging activity was compared to Trolox used as a reference.

[2] = Reducing ability: interaction with DPPH; conditions: tested at 100 µM
[3] = Inhibition of lipid peroxidation (ILPO), AAPH protocol with sodium linoleate; conditions: tested at 100 µM
Method: The reactants consisting of 10 µL (16 mM) sodium linoleate, 10 µL of the tested nitrones in DMSO (final concentration 100 µM), 50 µL of AAPH ([…]) as a free radical initiator, 930 µL phosphate buffer pH 7.4 (0.05 M) at 37 °C under air, were mixed and the reaction’s result (as absorbance value) was recorded at 234 nm in comparison to PBN as a reference.

[4] = system: human neuroblastoma SH-SY5Y cells; experiment: Superoxide radical production (DHE fluorescence) after OGD and 3 h OGR (IR); assay type: cell-based; conditions: OGD + 3 h OGR (IR); for EC50: compounds 0.1 to 1000 μM, read-out: Antioxidant Activity EC50 ± SEM (superoxide production); for Emax: read-out: Maximal Activity mean±SEM (antioxidant)
Method: A density of 2–2.5 × 10^5 SHSY5Y cells/well was used to seed in 48-well plates to quantify superioxide anion formation. Firstly, cultured cells were exposed to OGD treatment for 3–4 h or maintained in normoxic conditions (controls). Thereafter, medium was replaced with oxygenated Dulbecco’s: Ham’s F12 medium with glucose, 1% Antibiotic-Antimycotic, 1% Gentamicin and 10% FCS. Cells were incubated in the absence (controls) or presence of indicated concentrations of the compounds of study, at 37 °C for 3 h. […] For every condition, the linear regression of fluorescence data (expressed in arbitrary fluorescence units, AFU) was calculated, and the slopes (a) of the best fitting lines (y = ax) were considered as an index of superoxide production, as described previously.

[5] = system: human neuroblastoma SH-SY5Y cells; experiment: Basal neurotoxicity: cell viability under basal conditions; assay type: cell-based
Method: Cell viability measurements were carried out in human neuroblastoma cells SHSY5Y using 96-well culture plates, containing about 0.5–1 × 10^5 cells/well, after the OGD-R24h or control treatment including 0.01–1000 µM of the different testing compounds (nitrones 9a–g, PBN, and NAC), utilizing the Cell Proliferation Kit II (XTT), Sigma Aldrich, Madrid, Spain, which determines the culture’s metabolic capacity, as described in [21, 22]. XTT solution (0.3 mg/mL final concentration) was added to the seeded cells, incubated for 2 h at 37 °C with 5% CO2 and 95% air (v/v), and a spectrophotometer reader (Biotek Power-Wave XS microplate-reader (BioTek Instruments, Madrid, Spain) was used to register the absorbance at 450 nm (reference 650 nm) of the soluble formazan product generated. 100% viability was set by control normoxic cells treated with medium only, and control cells were added 0.001–1% DMSO in every assay.

## Cc1cn(C/C=[N+](/C)[O-])c(=O)[nH]c1=O [9b]
[1]
  OH (%) scavenging: 73%
[2]
  DPPH (%): 11%
[3]
  ILPO (%): 55%
[4]; Homo sapiens
  EC50: 0.72 ± 0.16 µM
  Emax: 100 ± 2.26%
other
  melting point: 182 °C (dec.)

## C/[N+]([O-])=C/Cn1cc(Br)c(=O)[nH]c1=O [9d]
[1]
  OH (%) scavenging: 90%
[2]
  DPPH (%): 6%
[4]; Homo sapiens
  EC50: 46.4 ± 9.49 µM
  Emax: 114 ± 7.72%
other
  melting point: 180 °C (dec.)

## C/[N+]([O-])=C/Cn1cc(Cl)c(=O)[nH]c1=O [9e]
[1]
  OH (%) scavenging: 87%
[2]
  DPPH (%): 13%
[3]
  ILPO (%): 68%
[4]; Homo sapiens
  EC50: 12.9 ± 1.43 µM
  Emax: 89.3 ± 5.33%
other
  melting point: 180 °C (dec.)

## C/[N+]([O-])=C/Cn1cnc2c(N)ncnc21 [9f]
[1]
  OH (%) scavenging: 66%
[2]
  DPPH (%): 9%
[4]; Homo sapiens
  EC50: 1.4 ± 0.66 µM
  Emax: 106 ± 9.39%
other
  melting point: 211 °C (dec.)

## C/[N+]([O-])=C/Cn1cc(Br)c(=O)n(C/C=[N+](/C)[O-])c1=O [9i]
[1]
  OH (%) scavenging: inactive and No
[2]
  DPPH (%): 76%
[3]
  ILPO (%): 71%
[4]; Homo sapiens
  EC50: 1.12 ± 0.13 µM
  Emax: 107 ± 2.72%

## CC(C)(C)[N+]([O-])=Cc1ccccc1 [PBN, α-phenyl-N-tert-butylnitrone, reference compound]
[5]
  Neurotoxic effects at basal level (cell viability): did not show any neurotoxic effects
[1]
  OH (%) scavenging: no
[3]
  ILPO (%): 11%
[4]
  Maximal Activity mean±SEM (antioxidant): 93.57±2.94%
  EC50: 5.86 ± 0.63 µM
